Measured values published in patent publication US9849104B2 (Gemphire Therapuetics Inc., priority 2015, dated 2017).
Where two headings read alike, the source gives them in different places.

Key:
[1] = biological target: T1, CYP2C9 (Homo sapiens, UniProt P11712); test: Inhibition of CYP2C9 (7-hydroxylation of (S)-warfarin) in human liver microsomes; format: in vitro ADME; details: probe (S)-warfarin (7-hydroxylation), 4 μM, read-out: inhibitory activity toward CYP2C9
T1 construct: Human livers, HLM141, HLM143, and HLM144 were selected from the University of Washington Human Liver Bank for this study; Microsomes were prepared; tissue University of Washington Human Liver Bank HLM141, HLM143, HLM144; host or cells: human liver microsomes
Protocol: Human livers, HLM141, HLM143, and HLM144 were selected from the University of Washington Human Liver Bank for this study. […] The seven isoforms and the metabolic pathway of each of the probes used to monitor specific isoform activity are listed below.
CYP2C9: The 7-hydroxylation of (S)-warfarin (4 μM). The reaction is monitored by quantitative GC/MS using 7-hydroxywarfarin-(d5-phenyl) as the internal standard.

[2] = tested on: STAM model of non-alcoholic steatohepatitis (NASH); details: for Fasting blood glucose (mean ± SD): Day 18, 8 hours of fasting; for Non-fasting blood glucose (mean ± SD): termination (Day 21); for Plasma GGT (mean ± SD) / Plasma creatinine (mean ± SD) / Plasma ALP (mean ± SD): mouse, in vivo, po
Protocol: Telmisartan (Micardis®) was purchased from Boehringer Ingelheim GmbH (Germany) and dissolved in pure water.
Telmisartan was administered at a dose of 10 mg/kg once daily.
Eight-hour fasting blood glucose was measured in whole blood using Life Check (EIDIA Co. Ltd., Japan). For plasma biochemistry, eight-hour fasting blood was collected in polypropylene tubes with anticoagulant (Novo-Heparin, Mochida Pharmaceutical, Japan) and centrifuged at 1,000×g for 15 minutes at 4° C. The supernatant was collected and stored at −80° C. until use. Plasma insulin levels were quantified by Ultra Sensitive Mouse Insulin ELISA kit (Morinaga Institute of Biological Science, Inc., Japan).
On the day of termination, non-fasting blood glucose was measured in whole blood using Life Check. For plasma biochemistry, non-fasting blood was collected in polypropylene tubes with anticoagulant (Novo-Heparin) and centrifuged at 1,000×g for 15 minutes at 4° C. The supernatant was collected and stored at −80° C. until use. Plasma ALT, AST, ALP, GGT, BUN, creatinine and total bilirubin levels were measured by FUJI DRI-CHEM 7000 (Fujifilm Corporation, Japan). Plasma ketone body levels were quantified by EnzyChrom™ Ketone Body Assay Kit (BioAssay Systems, USA).
Liver samples were homogenized in chloroform-methanol (2:1, v/v) and incubated overnight at room temperature. After washing with chloroform-methanol-water (8:4:3, v/v/v), the extracts were evaporated to dryness, and dissolved in isopropanol. Liver triglyceride content was measured by Triglyceride E-test (Wako Pure Chemical Industries). […]
Statistical analyses were performed using Bonferroni Multiple Comparison Test on GraphPad Prism 6 (GraphPad Software Inc., USA). […] Results were expressed as mean±SD.
The viability, clinical signs and behavior were monitored daily. Body weight was recorded before the treatment. […] The animals were sacrificed by exsanguinations through direct cardiac puncture under isoflurane anesthesia (Pfizer Inc.) at 9 weeks of age.

[3] = STAM NASH mice, 30 mg/kg PO QD, 30 mg/kg
[4] = STAM NASH mice, 100 mg/kg PO QD, 100 mg/kg
[5] = STAM NASH mice, 100 mg/kg PO QD, Day 21, 100 mg/kg
[6] = STAM NASH mice, 300 mg/kg PO QD, 300 mg/kg

T1 sequence (P11712 whole entry): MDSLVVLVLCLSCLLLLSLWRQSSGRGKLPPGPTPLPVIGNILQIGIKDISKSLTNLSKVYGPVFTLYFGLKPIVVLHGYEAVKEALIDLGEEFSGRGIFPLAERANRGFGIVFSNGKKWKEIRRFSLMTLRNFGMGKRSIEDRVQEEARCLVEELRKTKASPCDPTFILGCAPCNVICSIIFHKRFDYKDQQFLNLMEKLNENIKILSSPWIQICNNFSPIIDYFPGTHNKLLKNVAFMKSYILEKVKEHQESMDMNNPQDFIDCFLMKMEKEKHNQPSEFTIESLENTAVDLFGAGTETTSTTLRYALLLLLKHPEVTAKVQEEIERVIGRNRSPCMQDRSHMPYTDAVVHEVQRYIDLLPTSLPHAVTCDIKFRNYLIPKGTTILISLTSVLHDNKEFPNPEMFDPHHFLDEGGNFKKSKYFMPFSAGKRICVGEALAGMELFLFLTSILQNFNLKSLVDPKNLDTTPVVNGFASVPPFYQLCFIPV

Compound: CC(C)(CCCCOCCCCC(C)(C)C(=O)O)C(=O)O [Gemcabene, 6,6′-oxybis(2,2-dimethylhexanoic acid)]
- inhibition at 1500 µM [1]: 10 to 20%
- NAFLD Activity score, NAS (mean ± SD) ([2]; STAM NASH mice, 30 mg/kg PO QD 6-9 wks, 30 mg/kg): significant reduction
- Fasting blood glucose (mean ± SD) [2, 3]: no significant differences
- Liver triglyceride (mean ± SD) ([2]; STAM NASH mice, 30 mg/kg PO QD, Day 21, 30 mg/kg): no significant differences
- Non-fasting blood glucose (mean ± SD) [2, 3]: no significant differences
- Fasting blood glucose (mean ± SD) [2, 4]: no significant differences
- Liver triglyceride (mean ± SD) [2, 5]: no significant differences
- Plasma ALT (mean ± SD) [2, 5]: significant decrease
- Non-fasting blood glucose (mean ± SD) [2, 4]: no significant differences
- NAFLD Activity score, NAS (mean ± SD) ([2]; STAM NASH mice, 300 mg/kg PO QD 6-9 wks, 300 mg/kg): significant reduction
- Fasting blood glucose (mean ± SD) [2, 6]: no significant differences
- Liver triglyceride (mean ± SD) ([2]; STAM NASH mice, 300 mg/kg PO QD, Day 21, 300 mg/kg): no significant differences
- Non-fasting blood glucose (mean ± SD) [2, 6]: no significant differences
- fibrosis area compared with the Vehicle in NASH group ([2]; STAM NASH mice, all treatment groups (gemcabene 30, 100, 300 mg/kg; telmisartan 10 mg/kg)): significantly reduced
- Plasma GGT (mean ± SD) ([2]; 30 mg/kg): 1 ± 0 U/L
- Plasma creatinine (mean ± SD) ([2]; 30 mg/kg): 0.1 ± 0.0 mg/dL
- Plasma ALP (mean ± SD) ([2]; 100 mg/kg): significant increases
- Plasma GGT (mean ± SD) ([2]; 100 mg/kg): 1 ± 0 U/L
- Plasma ALP (mean ± SD) ([2]; 300 mg/kg): significant increases
- Plasma GGT (mean ± SD) ([2]; 300 mg/kg): 1 ± 0 U/L
- Plasma creatinine (mean ± SD) ([2]; 300 mg/kg): significant increase
